Experimental data taken from patent US9296725B2, “Heterocyclyl pyrimidine analogues as TYK2 inhibitors” (Cellzome Limited, priority 2012, dated 2016).
Read-outs that look alike come from different tables or passages of the source.

Legend:
JAK2 = biological target: T1, JAK2 (Homo sapiens, UniProt O60674); test: Kinobeads assay, JAK2 (competition binding in mixed Molt4/Ramos cell lysate, dot blot detection); settings: read-out: JAK2 Band (Kinobeads assay potency, IC50)
T1 construct: endogenous in cells; host or cells: Molt4 (ATCC CRL-1582) and Ramos (ATCC CRL-1596), mixed lysate 1:2
T1 sequence (O60674 whole entry): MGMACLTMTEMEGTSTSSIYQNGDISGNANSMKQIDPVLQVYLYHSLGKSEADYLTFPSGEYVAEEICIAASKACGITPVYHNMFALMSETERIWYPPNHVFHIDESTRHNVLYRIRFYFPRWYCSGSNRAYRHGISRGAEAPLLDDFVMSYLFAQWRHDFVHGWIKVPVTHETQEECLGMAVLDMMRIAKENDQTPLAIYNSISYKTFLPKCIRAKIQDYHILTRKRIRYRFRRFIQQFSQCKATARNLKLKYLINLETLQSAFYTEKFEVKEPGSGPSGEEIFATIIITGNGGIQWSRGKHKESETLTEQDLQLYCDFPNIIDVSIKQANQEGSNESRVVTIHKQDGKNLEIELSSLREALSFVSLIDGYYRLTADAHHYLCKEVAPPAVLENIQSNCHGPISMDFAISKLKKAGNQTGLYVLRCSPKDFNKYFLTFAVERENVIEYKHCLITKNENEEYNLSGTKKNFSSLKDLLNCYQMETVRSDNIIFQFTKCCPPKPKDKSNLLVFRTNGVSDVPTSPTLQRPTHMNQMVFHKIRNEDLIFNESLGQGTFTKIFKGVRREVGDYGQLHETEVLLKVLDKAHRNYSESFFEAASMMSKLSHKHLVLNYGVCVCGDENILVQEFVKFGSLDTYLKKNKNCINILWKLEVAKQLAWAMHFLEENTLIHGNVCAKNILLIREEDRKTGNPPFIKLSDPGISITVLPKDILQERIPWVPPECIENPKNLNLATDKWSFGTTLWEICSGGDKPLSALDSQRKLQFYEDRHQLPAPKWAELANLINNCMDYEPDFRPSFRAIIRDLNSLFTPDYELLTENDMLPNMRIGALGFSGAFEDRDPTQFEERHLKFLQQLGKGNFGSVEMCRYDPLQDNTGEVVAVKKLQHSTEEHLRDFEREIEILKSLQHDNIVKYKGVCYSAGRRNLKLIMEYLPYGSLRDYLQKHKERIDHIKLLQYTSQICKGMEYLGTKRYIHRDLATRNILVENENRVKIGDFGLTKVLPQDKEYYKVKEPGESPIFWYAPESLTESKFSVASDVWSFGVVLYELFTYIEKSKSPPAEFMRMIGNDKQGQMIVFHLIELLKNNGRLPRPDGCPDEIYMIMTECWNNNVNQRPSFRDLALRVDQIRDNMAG
Summary of the method: (§1)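 JAK2 and TYK2 retained on Kinobeads (immobilized aminopyrido-pyrimidine ligand) from 1:2 Molt4:Ramos lysate (10 mg/mL) were quantified by antibody dot blot (Odyssey infrared) after 3 h cold incubation with compound. Nine-step 1:3 dilution series; IC50 calculated from curves.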

TYK2 = biological target: T2, TYK2 (Homo sapiens, UniProt P29597); test: Kinobeads assay, TYK2 (competition binding in mixed Molt4/Ramos cell lysate, dot blot detection)
T2 construct: endogenous in cells; host or cells: Molt4 (ATCC CRL-1582) and Ramos (ATCC CRL-1596), mixed lysate 1:2
T2 sequence (P29597 whole entry): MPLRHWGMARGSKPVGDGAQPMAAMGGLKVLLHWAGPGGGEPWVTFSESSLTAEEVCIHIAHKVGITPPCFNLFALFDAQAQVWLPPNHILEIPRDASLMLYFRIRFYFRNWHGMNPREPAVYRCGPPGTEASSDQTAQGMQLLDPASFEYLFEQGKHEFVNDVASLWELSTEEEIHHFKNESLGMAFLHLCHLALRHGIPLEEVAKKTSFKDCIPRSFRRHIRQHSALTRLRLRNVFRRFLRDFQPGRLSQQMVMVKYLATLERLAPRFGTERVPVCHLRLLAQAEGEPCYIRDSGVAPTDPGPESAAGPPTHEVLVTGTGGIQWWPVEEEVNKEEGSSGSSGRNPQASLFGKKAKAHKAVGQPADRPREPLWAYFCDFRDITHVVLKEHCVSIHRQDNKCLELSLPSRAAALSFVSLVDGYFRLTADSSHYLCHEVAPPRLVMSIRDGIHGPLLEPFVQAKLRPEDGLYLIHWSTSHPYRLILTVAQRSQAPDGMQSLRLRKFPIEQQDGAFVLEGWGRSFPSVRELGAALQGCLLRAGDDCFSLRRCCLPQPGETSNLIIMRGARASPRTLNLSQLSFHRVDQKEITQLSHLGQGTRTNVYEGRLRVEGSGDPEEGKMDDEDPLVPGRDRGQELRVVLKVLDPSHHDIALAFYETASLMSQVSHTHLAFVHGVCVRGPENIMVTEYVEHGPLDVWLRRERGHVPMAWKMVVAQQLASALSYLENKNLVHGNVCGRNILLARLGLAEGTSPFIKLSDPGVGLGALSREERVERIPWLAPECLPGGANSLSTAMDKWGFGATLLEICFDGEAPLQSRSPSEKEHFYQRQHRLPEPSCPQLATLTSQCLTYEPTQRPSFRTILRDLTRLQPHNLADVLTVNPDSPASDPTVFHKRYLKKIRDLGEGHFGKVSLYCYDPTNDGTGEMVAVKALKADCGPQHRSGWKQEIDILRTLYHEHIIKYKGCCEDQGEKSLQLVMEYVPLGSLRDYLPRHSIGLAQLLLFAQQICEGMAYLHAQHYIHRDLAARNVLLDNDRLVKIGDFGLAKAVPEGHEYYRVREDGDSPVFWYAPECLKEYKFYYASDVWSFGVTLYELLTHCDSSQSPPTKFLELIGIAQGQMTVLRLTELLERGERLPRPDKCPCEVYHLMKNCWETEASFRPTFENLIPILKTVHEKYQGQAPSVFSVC
Summary of the method: as §1

[1] = Kinobeads assay, Molt4/Ramos lysate, read-out: TYK2 Band (Kinobeads assay potency, IC50)

Row | Compound | IC50 (JAK2) [nM] | IC50 (TYK2; [1]) [nM] | IC50 (TYK2; read-out: TYK2 IC50) [nM]
1 | O=C(Cn1cc(Nc2nccc(NCc3c(F)cc(F)cc3F)n2)cn1)NCC(F)(F)F [Example I-86] | > 10000 | 10 to 100 | 
2 | NC(=O)Cn1cc(Nc2ncc(F)c(NCc3c(F)cccc3F)n2)cn1 [Example I-380] | 1000 to 10000 | 10 to 100 | 
3 | O=C(Cn1cc(Nc2ncc(Cl)c(NCc3cncc(F)c3)n2)cn1)N1CCOCC1 [Example I-339] | 100 to 1000 | 10 to 100 | 
4 | OCCn1cc(Nc2ncc(Cl)c(NCc3ccccc3F)n2)cn1 [Example I-174] | 100 to 1000 | 10 to 100 | 
5 | CNC(=O)Cn1cc(Nc2ncc(F)c(NCc3c(F)cccc3F)n2)cn1 [Example I-381] | 1000 to 10000 | 10 to 100 | 
6 | COc1cccc(CNc2nc(Nc3cnn(CCO)c3)ncc2Cl)c1 [Example I-186] | 1000 to 10000 | 100 to 1000 | 
7 | OCCn1cc(Nc2ncc(Cl)c(NCc3cc(Br)cc(F)c3F)n2)cn1 [Example I-264] | 100 to 1000 | 100 to 1000 | 
8 | COc1ccc(F)c(CNc2ccnc(Nc3cnn(CC(=O)N[C@@H]4C[C@@H]4F)c3)n2)c1F [Example I-128] | 1000 to 10000 | 10 to 100 | 
9 | Cc1cnc(Nc2cnn(CC(=O)N3CCOCC3)c2)nc1NCc1cccc(OC(F)F)c1 [Example I-23] | 1000 to 10000 | ≤ 10 | 
10 | Cn1ncnc1Cn1cc(Nc2ncc(Cl)c(NCc3ccccc3)n2)cn1 [Example I-250] | 1000 to 10000 | 1000 to 10000 | 
11 | C[C@H](CO)NC(=O)Cn1cc(Nc2ncc(F)c(NCc3c(F)cc(F)cc3F)n2)cn1 [Example I-41] | 1000 to 10000 | 10 to 100 | 
12 | Cc1cnc(Nc2cnn(CC(=O)NC3CC3)c2)nc1NCc1cccc(F)c1F [Example I-341] | 1000 to 10000 | 10 to 100 | 
13 | CCOc1cccc(CNc2nc(Nc3cnn(CCO)c3)ncc2Cl)c1 [Example I-294] | 1000 to 10000 | 100 to 1000 | 
14 | C[C@H](CO)NC(=O)Cn1cc(Nc2nccc(NCc3c(F)cncc3F)n2)cn1 [Example I-147] | > 10000 | 10 to 100 | 
15 | CS(=O)(=O)c1ccc(F)cc1CNc1nc(Nc2cn[nH]c2)ncc1F [Example I-486] | 100 to 1000 | 100 to 1000 | 
16 | Fc1cc(F)c(F)c(CNc2nc(Nc3cnn(CC(F)F)c3)ncc2Cl)c1 [Example I-468] | 100 to 1000 | 100 to 1000 | 
17 | Clc1cnc(Nc2cn[nH]c2)nc1NCc1ccccc1 [Example I-201] | 1000 to 10000 | 100 to 1000 | 
18 | CS(=O)(=O)c1ccccc1CNc1nc(Nc2cnn(CCO)c2)ncc1F [Example I-435] | 1000 to 10000 | 100 to 1000 | 
19 | CNC(=O)Cn1cc(Nc2ncc(Cl)c(NCc3cc(Br)cc(F)c3F)n2)cn1 [Example I-262] | 100 to 1000 | 100 to 1000 | 
20 | Cc1cnc(Nc2cnn(CC(F)(F)F)c2)nc1NCc1cc(F)cc(F)c1 [Example I-350] | 1000 to 10000 | 1000 to 10000 | 
21 | O=C(Cn1cc(Nc2ncc(F)c(NCc3c(F)cc(F)cc3F)n2)cn1)NC1CCC1 [Example I-308] | > 10000 | 10 to 100 | 
22 | OCCn1cc(Nc2ncc(Cl)c(NCc3ccc(O)cc3)n2)cn1 [Example I-219] | 100 to 1000 | 10 to 100 | 
23 | COc1ccccc1CNc1nc(Nc2cnn(C)c2)ncc1Cl [Example I-228] | 1000 to 10000 | 100 to 1000 | 

Row | Compound | IC50 (JAK2) [nM] | IC50 (TYK2; [1]) [nM] | IC50 (TYK2; read-out: TYK2 IC50) [nM]
24 | Fc1ccccc1CNc1nc(Nc2cn[nH]c2)ncc1Cl [Example I-369] | 100 to 1000 | 100 to 1000 | 
25 | COc1c(F)cccc1CNc1nc(Nc2cnn(CC(N)=O)c2)ncc1Cl [Example I-404] | 100 to 1000 | 100 to 1000 | 
26 | C[C@H]1COCCN1C(=O)Cn1cc(Nc2ncc(F)c(NCc3c(F)cc(F)cc3F)n2)cn1 [Example I-73] | 1000 to 10000 | ≤ 10 | 
27 | OCCn1cc(Nc2ncc(F)c(NCc3ccccc3F)n2)cn1 [Example I-205] | 1000 to 10000 | 10 to 100 | 
28 | CNC(=O)Cn1cc(Nc2ncc(Cl)c(NCc3cc(C(F)(F)F)ccc3F)n2)cn1 [Example I-279] | 100 to 1000 | 10 to 100 | 
29 | CNC(=O)Cn1cc(Nc2ncc(Cl)c(NCc3cc(C(F)(F)F)ccc3Cl)n2)cn1 [Example I-280] | 100 to 1000 | 10 to 100 | 
30 | OCCn1cc(Nc2ncc(Cl)c(NCc3cccnc3)n2)cn1 [Example I-255] | 1000 to 10000 | 100 to 1000 | 
31 | O=C(Cn1cc(Nc2nccc(NCc3c(F)cccc3Cl)n2)cn1)NC1CC1 [Example I-139] | 1000 to 10000 | ≤ 10 | 
32 | O=C(Cn1cc(Nc2ncc(F)c(NCc3cccc(OC(F)F)c3)n2)cn1)N1CCOCC1 [Example I-44] | 1000 to 10000 | ≤ 10 | 
33 | COc1ccc(S(C)(=O)=O)cc1CNc1nc(Nc2cnn(CC(F)F)c2)ncc1C [Example I-107] | 100 to 1000 | 10 to 100 | 
34 | COc1ccc(F)c(CNc2nc(Nc3cnn(CC(=O)OC(C)C)c3)ncc2F)c1F [Example I-47] | > 10000 | 10 to 100 | 
35 | CC(C)NC(=O)Cn1cc(Nc2ncc(F)c(NCc3c(F)cc(F)cc3F)n2)cn1 [Example I-38] | 1000 to 10000 | ≤ 10 | < 100
36 | CC(CO)n1cc(Nc2ncc(Cl)c(NCc3ccccc3)n2)cn1 (stereo not drawn) [Example I-361] | 100 to 1000 | 100 to 1000 | 
37 | N#CCOc1cccc(CNc2nc(Nc3cnn(CC(=O)N4CCOCC4)c3)ncc2Cl)c1 [Example I-366] | 1000 to 10000 | 10 to 100 | 
38 | OCCn1cc(Nc2ncc(Cl)c(NCc3cccc(F)c3)n2)cn1 [Example I-171] | 100 to 1000 | 10 to 100 | 
39 | Cn1cc(Nc2ncc(Cl)c(NCc3c(F)cc(F)cc3F)n2)cn1 [Example I-385] | 1000 to 10000 | 10 to 100 | 
40 | CNC(=O)Cn1cc(Nc2ncc(Cl)c(NCc3ccccc3S(=O)(=O)NC)n2)cn1 [Example I-355] | 100 to 1000 | 100 to 1000 | 
41 | O=C(O)Cn1cc(Nc2ncc(F)c(NCc3cccc(OC(F)F)c3)n2)cn1 [Example I-425] | > 10000 | 10 to 100 | 
42 | CN(C)C(=O)Cn1cc(Nc2ncc(F)c(NCc3c(F)cc(F)cc3F)n2)cn1 [Example I-18] | 1000 to 10000 | 10 to 100 | 
43 | OCCn1cc(Nc2ncc(Cl)c(NCc3cccc(F)c3C(F)(F)F)n2)cn1 [Example I-333] | 1000 to 10000 | 100 to 1000 | 
44 | O=C(Cn1cc(Nc2nccc(NCc3c(F)cccc3Cl)n2)cn1)NCC(F)F [Example I-141] | 1000 to 10000 | 10 to 100 | 
45 | COc1ccc(F)c(CNc2nc(Nc3cnn(C)c3)ncc2Cl)c1F [Example I-319] | 1000 to 10000 | 10 to 100 | 
46 | CC(C)NC(=O)Cn1cc(Nc2nccc(NCc3c(Cl)ccc(F)c3F)n2)cn1 [Example I-93] | 1000 to 10000 | 10 to 100 | 

Row | Compound | IC50 (JAK2) [nM] | IC50 (TYK2; [1]) [nM] | IC50 (TYK2; read-out: TYK2 IC50) [nM]
47 | CN(C)C(=O)Cn1cc(Nc2ncc(Cl)c(NCc3c(F)cc(F)cc3F)n2)cn1 [Example I-16] | 1000 to 10000 | 10 to 100 | 
48 | Cn1cc(Nc2ncc(Cl)c(NCc3cc(S(C)(=O)=O)ccc3F)n2)cn1 [Example I-99] | 100 to 1000 | 10 to 100 | 
49 | O=C(Cn1cc(Nc2nccc(NCc3c(F)cc(F)cc3F)n2)cn1)N[C@H]1C[C@H]1F [Example I-454] | 1000 to 10000 | 10 to 100 | 
50 | OCCn1cc(Nc2ncc(Cl)c(NCc3cccc(F)c3F)n2)cn1 [Example I-180] | 100 to 1000 | 10 to 100 | 
51 | [2H]C([2H])(O)C([2H])([2H])n1cc(Nc2ncc(Cl)c(NCc3c(F)cccc3F)n2)cn1 [Example I-234] | 100 to 1000 | 10 to 100 | 
52 | COc1ccc(F)c(CNc2nc(Nc3cnn(CC(=O)N4CCOCC4)c3)ncc2Cl)c1F [Example I-377] | 100 to 1000 | 10 to 100 | 
53 | OCCn1cc(Nc2ncc(Cl)c(NCc3ccccc3CO)n2)cn1 [Example I-357] | 1000 to 10000 | 100 to 1000 | 
54 | Cn1cc(Nc2nccc(NCc3c(Cl)ccc(Cl)c3F)n2)cn1 [Example I-60] | 100 to 1000 | 10 to 100 | 
55 | OCCn1cc(Nc2ncc(Cl)c(NCc3cc(F)cc(C(F)(F)F)c3)n2)cn1 [Example I-181] | 1000 to 10000 | 100 to 1000 | 
56 | Cn1cc(Nc2ncc(F)c(NCc3c(F)cc(S(N)(=O)=O)cc3F)n2)cn1 [Example I-379] | 1000 to 10000 | 10 to 100 | 
57 | CNC(=O)Cn1cc(Nc2ncc(Cl)c(NCc3ccccc3S(=O)(=O)N(C)C)n2)cn1 [Example I-356] | 100 to 1000 | 100 to 1000 | 
58 | CS(=O)(=O)c1cccc(CNc2nc(Nc3cnn(CC(=O)NCCO)c3)ncc2Cl)c1 [Example I-441] | 1000 to 10000 | 100 to 1000 | 
59 | Cn1cc(Nc2nccc(NCc3c(F)cncc3F)n2)cn1 [Example I-148] | 1000 to 10000 | 10 to 100 | 
60 | [2H]C([2H])(O)C([2H])([2H])n1cc(Nc2ncc(Cl)c(NCc3cccc(F)c3F)n2)cn1 [Example I-233] | 1000 to 10000 | 100 to 1000 | 
61 | OCCn1cc(Nc2ncc(Cl)c(NCc3cc(Br)ccc3F)n2)cn1 [Example I-164] | 100 to 1000 | 10 to 100 | 
62 | CNC(=O)Cn1cc(Nc2ncc(Cl)c(NCc3ccccc3F)n2)cn1 [Example I-211] | 100 to 1000 | 100 to 1000 | 
63 | CN(C)C(=O)Cn1cc(Nc2ncc(Cl)c(NCc3cccc(CNS(C)(=O)=O)c3)n2)cn1 [Example I-416] | 100 to 1000 | 100 to 1000 | 
64 | OCCn1cc(Nc2ncc(Cl)c(NCc3cc(OC(F)F)ccc3F)n2)cn1 [Example I-413] | 100 to 1000 | 10 to 100 | 
65 | CC(C)(C)OC(=O)N1CC2CCC1CN2C(=O)Cn1cc(Nc2ncc(Cl)c(NCc3ccccc3)n2)cn1 (stereo not drawn) [Example I-197] | 1000 to 10000 | 100 to 1000 | 
66 | CS(=O)(=O)NCc1cccc(CNc2nc(Nc3cnn(CC(=O)N4CCC[C@@H]4C#N)c3)ncc2Cl)c1 [Example I-399] | 1000 to 10000 | 100 to 1000 | 
67 | CS(=O)(=O)NCc1cccc(CNc2nc(Nc3cnn(CC(=O)N4CCOCC4)c3)ncc2Cl)c1 [Example I-396] | 1000 to 10000 | 10 to 100 | 
